Values of other authors in patent US7901914B2, “Microbiological method of the biosynthesis of natural blue-violet colorants violacein and deoxyviolacein and the utilization thereof” (Stiftung Alfred-Wegener-Institut fuer Polar- und …, priority 2000, dated 2011).

- solubility in organic solvents (in acetone, ethanol and dioxane): soluble
- solubility in water (in water): practically insoluble
Compound: O=C1NC(c2c[nH]c3ccc(O)cc23)=C/C1=C1\C(=O)Nc2ccccc21 [violacein, 3-[1,2-dihydro-5-(5-hydroxy-1H-indole-3-yl)-2-oxo-3-H-pyrrole-3-ylidene]-1,3-dihydro-2H-indole-2-on]
